{
  "source": "patent US11766044B2",
  "about": "“Method for controlling PPO resistant weeds” (BASF SE, priority 2016, dated 2023)",
  "key": {"[1]": {"test_system": "sensitive (w.1, w.4) and resistant weeds (w.2, w.3, w.5, w.6)", "assay": "First greenhouse experiment, summary in words", "assay_type": "in vivo, Amaranthus tamariscinus, Ambrosia elatior", "details": "table 2, 1 and 2 g/ha"}, "[2]": {"test_system": "Amaranthus tamariscinus (AMATA, common waterhemp), Sensitive (w.1)", "assay_type": "in vivo"}, "[3]": {"test_system": "Amaranthus tamariscinus (AMATA, common waterhemp), PPO resistant biotype 2 (w.3)", "assay_type": "in vivo", "details": "scale 0 to 100"}, "[4]": {"test_system": "Ambrosia elatior (AMBEL, common ragweed), Sensitive (w.4)", "assay_type": "in vivo", "details": "scale 0 to 100"}, "[5]": {"test_system": "Amaranthus tamariscinus (AMATA, common waterhemp), PPO resistant biotype 1 (w.2)", "assay_type": "in vivo", "details": "scale 0 to 100"}, "[6]": {"test_system": "Amaranthus tuberculatus (AMATU, tall waterhemp), Sensitive (w.7)", "assay": "Greenhouse herbicidal activity test, another (second) experiment, weed w.7", "assay_type": "in vivo", "details": "scale 0 to 100"}, "[7]": {"test_system": "sensitive (w.10) and resistant weeds (w.11, w.12)", "assay": "Third greenhouse experiment, summary in words", "assay_type": "in vivo, Amaranthus tamariscinus", "details": "table 4, 2 and 4 g/ha"}},
  "note": "Read-outs that look alike come from different tables or passages of the source.",
  "data": [
    {"molecule": "C#CCN1C(=O)COc2cc(F)c(N3C(=O)C4=C(CCCC4)C3=O)cc21", "note": "[flumioxazin, reference compound]", "values": [
      {"measurement": "control of resistant in comparison to sensitive biotypes", "setting": "[1]", "result": "much weaker control"}
    ]},
    {"molecule": "CCOC(=O)COc1ncccc1Oc1cc(-n2c(=O)cc(C(F)(F)F)n(C)c2=O)c(F)cc1Cl", "note": "[compound (I).1]", "values": [
      {"measurement": "Weed control (%) w.1", "setting": "[2]; use rate 1 g/ha, scale 0 to 100", "result": 100, "unit": "%"},
      {"measurement": "Weed control (%) w.1", "setting": "[2]; use rate 2 g/ha, scale 0 to 100, 100 = complete destruction", "result": 100, "unit": "%"},
      {"measurement": "Weed control (%) w.3", "setting": "[3]; use rate 1 g/ha", "result": 100, "unit": "%"},
      {"measurement": "Weed control (%) w.3", "setting": "[3]; use rate 2 g/ha", "result": 100, "unit": "%"},
      {"measurement": "Weed control (%) w.4", "setting": "[4]; use rate 1 g/ha", "result": 100, "unit": "%"},
      {"measurement": "Weed control (%) w.4", "setting": "[4]; use rate 2 g/ha", "result": 100, "unit": "%"},
      {"measurement": "activity on both sensitive and resistant weeds", "setting": "[1]; sensitive w.1, w.4, resistant w.2, w.3, w.5, w.6", "result": "very good activity"},
      {"measurement": "Weed control (%) w.2", "setting": "[5]; use rate 1 g/ha", "result": 100, "unit": "%"},
      {"measurement": "Weed control (%) w.2", "setting": "[5]; use rate 2 g/ha", "result": 100, "unit": "%"},
      {"measurement": "Weed control (%) 7", "setting": "[6]; use rate 1 g/ha", "result": 100, "unit": "%"},
      {"measurement": "Weed control (%) 7", "setting": "[6]; use rate 2 g/ha", "result": 100, "unit": "%"}
    ]},
    {"molecule": "CCOC(=O)COc1ccccc1Oc1cc(-n2c(=O)cc(C(F)(F)F)n(C)c2=O)c(F)cc1Cl", "note": "[compound (I).4]", "values": [
      {"measurement": "activity on both sensitive and resistant weeds", "setting": "[7]; sensitive w.10, resistant w.11, w.12", "result": "very good activity"}
    ]},
    {"molecule": "C#CCOc1cc(-n2nc3n(c2=O)CCCC3)c(Cl)cc1Cl", "note": "[azafenidin, reference compound]", "values": [
      {"measurement": "control of resistant in comparison to sensitive biotypes", "setting": "[7]", "result": "much weaker control"}
    ]}
  ]
}
